Experimental data from article PMC4515429, “Anti-Biofilm and Immunomodulatory Activities of Peptides That Inhibit Biofilms Formed by Pathogens Isolated from Cystic Fibrosis Patients” (Antibiotics, 2014).
“And” between values parts separate entries of the source, which are not always exact repeats. Equal entries are not always repeated. Where no end group is shown, it is not given here.

Tests used:
[1] = system: B. cenocepacia CEP509 (IIIb); conditions: polypropylene 96-well plate, BM2 glucose, 22 h, 37 °C, crystal violet, absorbance 595, at least two independent experiments
Experimental: (§1) To assess the biofilm-forming ability of the different clinical isolates, dilutions (1/100) of overnight cultures were incubated in 96-well polypropylene plates using BM2 glucose medium, as previously described.
(§2) Biofilm formation was initially analyzed using a static abiotic solid surface assay as described elsewhere. Dilutions (1/100) of overnight cultures were incubated in BM2 glucose medium (62 mM potassium phosphate buffer (pH 7), 7 mM (NH4)2SO4, 2 mM MgSO4, 10 μM FeSO4, 0.4% (wt/vol) glucose, 0.5% (wt/vol) Casamino Acids) in polypropylene microtiter plates (Fisher Scientific, Waltham, MA, USA) in the presence of the different peptides for 22 h at 37 °C. Planktonic cells were removed and biofilm cells adhering to the side of the tubes were stained with crystal violet, extracted into ethanol, and the optical density at 595 nm (OD595) measured using a microtiter plate reader (Bio-Tek Instruments Inc., Winooski, VT, USA). Peptides were added at time zero (prior to adding the diluted, overnight cultures) at various concentrations, and the decrease in biofilm formation was recorded at 22 h for P. aeruginosa, Burkholderia and Methicillin-resistant Staphylococcus aureus isolates.

B. dolosa CEP0021 (VI) [2] = conditions: polypropylene 96-well plate, BM2 glucose, 22 h, 37 °C, crystal violet, absorbance 595, at least two independent experiments
Experimental: as §1, §2

B. stabilis C6061 (IV) [3] = conditions: polypropylene 96-well plate, BM2 glucose, 22 h, 37 °C, crystal violet, absorbance 595, at least two independent experiments
Experimental: as §1, §2

P. aeruginosa PA01 [4] = conditions: polypropylene 96-well plate, BM2 glucose, 22 h, 37 °C, crystal violet, absorbance 595, at least two independent experiments
Experimental: as §1, §2

[5] = system: P. aeruginosa 2955 (Dwarf); conditions: polypropylene 96-well plate, BM2 glucose, 22 h, 37 °C, crystal violet, absorbance 595, at least two independent experiments
Experimental: as §1, §2

[6] = system: P. aeruginosa 7633 (Entire); conditions: polypropylene 96-well plate, BM2 glucose, 22 h, 37 °C, crystal violet, absorbance 595, at least two independent experiments
Experimental: as §1, §2

[7] = system: B. multivorans D2661 (Genomovar II); conditions: polypropylene 96-well plate, BM2 glucose, 22 h, 37 °C, crystal violet, absorbance 595, at least two independent experiments
Experimental: as §1, §2

[8] = system: B. cenocepacia CEP0055 (IIIb); conditions: polypropylene 96-well plate, BM2 glucose, 22 h, 37 °C, crystal violet, absorbance 595, at least two independent experiments
Experimental: as §1, §2

[9] = system: P. aeruginosa 7632 (Classic); conditions: polypropylene 96-well plate, BM2 glucose, 22 h, 37 °C, crystal violet, absorbance 595, at least two independent experiments
Experimental: as §1, §2

[10] = system: P. aeruginosa 3195 (Classic); conditions: polypropylene 96-well plate, BM2 glucose, 22 h, 37 °C, crystal violet, absorbance 595, at least two independent experiments
Experimental: as §1, §2

[11] = system: P. aeruginosa 2631 (Classic); conditions: polypropylene 96-well plate, BM2 glucose, 22 h, 37 °C, crystal violet, absorbance 595, at least two independent experiments
Experimental: as §1, §2

[12] = system: B. cenocepacia 4813 (IIIa); conditions: polypropylene 96-well plate, BM2 glucose, 22 h, 37 °C, crystal violet, absorbance 595, at least two independent experiments
Experimental: as §1, §2

[13] = system: B. cenocepacia C5424 (IIIa); conditions: polypropylene 96-well plate, BM2 glucose, 22 h, 37 °C, crystal violet, absorbance 595, at least two independent experiments
Experimental: as §1, §2

[14] = system: P. aeruginosa 3330 (Classic); conditions: polypropylene 96-well plate, BM2 glucose, 22 h, 37 °C, crystal violet, absorbance 595, at least two independent experiments
Experimental: as §1, §2

P. aeruginosa PA14 [15] = conditions: polypropylene 96-well plate, BM2 glucose, 22 h, 37 °C, crystal violet, absorbance 595, at least two independent experiments
Experimental: as §1, §2

[16] = system: P. aeruginosa 2639 (Mucoid); conditions: polypropylene 96-well plate, BM2 glucose, 22 h, 37 °C, crystal violet, absorbance 595, at least two independent experiments
Experimental: as §1, §2

[17] = system: B. ambifaria CEP0996 (VII); conditions: polypropylene 96-well plate, BM2 glucose, 22 h, 37 °C, crystal violet, absorbance 595, at least two independent experiments
Experimental: as §1, §2

[18] = system: P. aeruginosa 1172 (Classic); conditions: polypropylene 96-well plate, BM2 glucose, 22 h, 37 °C, crystal violet, absorbance 595, at least two independent experiments
Experimental: as §1, §2

[19] = system: P. aeruginosa C4278 (Mucoid); conditions: planktonic cells; broth microdilution, BHI, 5 × 10^5 CFU/mL, 37 °C, 18 h; performed at least three times
Experimental: (§3) In addition to the wild type lab isolates Pseudomonas aeruginosa strains PAO1 and PA14, a variety of cystic fibrosis clinical isolates of P. aeruginosa and Burkholderia cepacia complex strains were utilized (Table 1). Planktonic cells from each of the P. aeruginosa and B. cepacia strains were grown in BM2 glucose or cation-adjusted Mueller-Hinton. The minimal inhibitory concentration (MIC) for peptides in brain-heart infusion (BHI) was assessed by the broth microdilution method with minor modifications for cationic peptides. […] MIC assays were performed in sterile 96-well polypropylene microtiter plates. […] The plates were incubated at 37 °C for 18 h.

[20] = system: B. cenocepacia CEP509 (IIIb); conditions: planktonic cells; broth microdilution, BHI, 5 × 10^5 CFU/mL, 37 °C, 18 h; performed at least three times
Experimental: as §3

B. dolosa CEP0021 (VI) [21] = conditions: planktonic cells; broth microdilution, BHI, 5 × 10^5 CFU/mL, 37 °C, 18 h; performed at least three times
Experimental: as §3

B. stabilis C6061 (IV) [22] = conditions: planktonic cells; broth microdilution, BHI, 5 × 10^5 CFU/mL, 37 °C, 18 h; performed at least three times
Experimental: as §3

[23] = system: P. aeruginosa C4276 (Classic); conditions: planktonic cells; broth microdilution, BHI, 5 × 10^5 CFU/mL, 37 °C, 18 h; performed at least three times
Experimental: as §3

P. aeruginosa PA01 [24] = conditions: planktonic cells; broth microdilution, BHI, 5 × 10^5 CFU/mL, 37 °C, 18 h; performed at least three times
Experimental: as §3

[25] = system: P. aeruginosa 2955 (Dwarf); conditions: planktonic cells; broth microdilution, BHI, 5 × 10^5 CFU/mL, 37 °C, 18 h; performed at least three times
Experimental: as §3

[26] = system: P. aeruginosa 7633 (Entire); conditions: planktonic cells; broth microdilution, BHI, 5 × 10^5 CFU/mL, 37 °C, 18 h; performed at least three times
Experimental: as §3

[27] = system: B. multivorans D2661 (Genomovar II); conditions: planktonic cells; broth microdilution, BHI, 5 × 10^5 CFU/mL, 37 °C, 18 h; performed at least three times
Experimental: as §3

[28] = system: P. aeruginosa 4020 (Classic); conditions: planktonic cells; broth microdilution, BHI, 5 × 10^5 CFU/mL, 37 °C, 18 h; performed at least three times
Experimental: as §3

[29] = system: P. aeruginosa 4608 (Mucoid); conditions: planktonic cells; broth microdilution, BHI, 5 × 10^5 CFU/mL, 37 °C, 18 h; performed at least three times
Experimental: as §3

[30] = system: B. cenocepacia CEP0055 (IIIb); conditions: planktonic cells; broth microdilution, BHI, 5 × 10^5 CFU/mL, 37 °C, 18 h; performed at least three times
Experimental: as §3

[31] = system: P. aeruginosa 7632 (Classic); conditions: planktonic cells; broth microdilution, BHI, 5 × 10^5 CFU/mL, 37 °C, 18 h; performed at least three times
Experimental: as §3

[32] = system: P. aeruginosa 3195 (Classic); conditions: planktonic cells; broth microdilution, BHI, 5 × 10^5 CFU/mL, 37 °C, 18 h; performed at least three times
Experimental: as §3

[33] = system: P. aeruginosa 2631 (Classic); conditions: planktonic cells; broth microdilution, BHI, 5 × 10^5 CFU/mL, 37 °C, 18 h; performed at least three times
Experimental: as §3

[34] = system: P. aeruginosa C2773 (Classic); conditions: planktonic cells; broth microdilution, BHI, 5 × 10^5 CFU/mL, 37 °C, 18 h; performed at least three times
Experimental: as §3

[35] = system: B. cenocepacia 4813 (IIIa); conditions: planktonic cells; broth microdilution, BHI, 5 × 10^5 CFU/mL, 37 °C, 18 h; performed at least three times
Experimental: as §3

[36] = system: B. cenocepacia C5424 (IIIa); conditions: planktonic cells; broth microdilution, BHI, 5 × 10^5 CFU/mL, 37 °C, 18 h; performed at least three times
Experimental: as §3

[37] = system: P. aeruginosa 3330 (Classic); conditions: planktonic cells; broth microdilution, BHI, 5 × 10^5 CFU/mL, 37 °C, 18 h; performed at least three times
Experimental: as §3

P. aeruginosa PA14 [38] = conditions: planktonic cells; broth microdilution, BHI, 5 × 10^5 CFU/mL, 37 °C, 18 h; performed at least three times
Experimental: as §3

[39] = system: P. aeruginosa 2639 (Mucoid); conditions: planktonic cells; broth microdilution, BHI, 5 × 10^5 CFU/mL, 37 °C, 18 h; performed at least three times
Experimental: as §3

[40] = system: B. ambifaria CEP0996 (VII); conditions: planktonic cells; broth microdilution, BHI, 5 × 10^5 CFU/mL, 37 °C, 18 h; performed at least three times
Experimental: as §3

[41] = system: P. aeruginosa 1172 (Classic); conditions: planktonic cells; broth microdilution, BHI, 5 × 10^5 CFU/mL, 37 °C, 18 h; performed at least three times
Experimental: as §3

## VRLIVAVRIWRR-NH2 [Peptide 1018]
[1]
  Inhibition by 10 µg/mL 1018 (biofilm formation): 61%
B. dolosa CEP0021 (VI) [2]
  Inhibition by 10 µg/mL 1018 (biofilm formation): 55%
B. stabilis C6061 (IV) [3]
  Inhibition by 10 µg/mL 1018 (biofilm formation): 53%
P. aeruginosa PA01 [4]
  Inhibition by 10 µg/mL 1018 (biofilm formation): ~ 50% and 51%
[5]
  Inhibition by 10 µg/mL 1018 (biofilm formation): 41%
[6]
  Inhibition by 10 µg/mL 1018 (biofilm formation): 49%
[7]
  Inhibition by 10 µg/mL 1018 (biofilm formation): 75%
[8]
  Inhibition by 10 µg/mL 1018 (biofilm formation): 58%
[9]
  Inhibition by 10 µg/mL 1018 (biofilm formation): 19%
[10]
  Inhibition by 10 µg/mL 1018 (biofilm formation): 37%
[11]
  Inhibition by 10 µg/mL 1018 (biofilm formation): 44%
[12]
  Inhibition by 10 µg/mL 1018 (biofilm formation): 52%
[13]
  Inhibition by 10 µg/mL 1018 (biofilm formation): 59%
[14]
  Inhibition by 10 µg/mL 1018 (biofilm formation): 33%
P. aeruginosa PA14 [15]
  Inhibition by 10 µg/mL 1018 (biofilm formation): ~ 50% and 49%
[16]
  Inhibition by 10 µg/mL 1018 (biofilm formation): 44%
[17]
  Inhibition by 10 µg/mL 1018 (biofilm formation): 62%
[18]
  Inhibition by 10 µg/mL 1018 (biofilm formation): 37%
[19]
  MIC: 16 µg/mL
[20]
  MIC: >256 µg/mL
B. dolosa CEP0021 (VI) [21]
  MIC: >256 µg/mL
B. stabilis C6061 (IV) [22]
  MIC: 64 µg/mL
[23]
  MIC: 32 µg/mL
P. aeruginosa PA01 [24]
  MIC: 16 µg/mL
[25]
  MIC: 50 µg/mL
[26]
  MIC: 16 µg/mL
[27]
  MIC: >512 µg/mL
[28]
  MIC: 16 µg/mL
[29]
  MIC: 32 µg/mL
[30]
  MIC: 128 µg/mL
[31]
  MIC: 16 µg/mL
[32]
  MIC: 16 µg/mL
[33]
  MIC: 32 µg/mL
[34]
  MIC: 16 µg/mL
[35]
  MIC: >256 µg/mL
[36]
  MIC: 128 µg/mL
[37]
  MIC: 16 µg/mL
P. aeruginosa PA14 [38]
  MIC: 16 µg/mL
[39]
  MIC: 32 µg/mL
[40]
  MIC: 64 µg/mL
[41]
  MIC: 16 µg/mL
